Source: patent publication US20090005435A1, “Novel Compounds, Pharmaceutical Compositions Containing Same, and Methods of Use for Same” (priority 2004, published 2009)
Converted amounts (≈) assume the structure as drawn. “And” between values parts separate entries of the source, which are not always exact repeats. Equal entries are not always repeated.

Key:
purified human FAS = target: T1, purified human FAS (Homo sapiens, UniProt P49327); experiment: FAS enzymatic activity (malonyl-CoA dependent NADPH oxidation); type: biochemical; details: (SB)
T1 construct: Human FAS was purified from cultured ZR-75-1 human breast cancer cells; endogenous in cells; host or cells: ZR-75-1 human breast cancer cells (ATCC); enzyme purified by PEG precipitation and Mono Q chromatography
T1 sequence (P49327 whole entry): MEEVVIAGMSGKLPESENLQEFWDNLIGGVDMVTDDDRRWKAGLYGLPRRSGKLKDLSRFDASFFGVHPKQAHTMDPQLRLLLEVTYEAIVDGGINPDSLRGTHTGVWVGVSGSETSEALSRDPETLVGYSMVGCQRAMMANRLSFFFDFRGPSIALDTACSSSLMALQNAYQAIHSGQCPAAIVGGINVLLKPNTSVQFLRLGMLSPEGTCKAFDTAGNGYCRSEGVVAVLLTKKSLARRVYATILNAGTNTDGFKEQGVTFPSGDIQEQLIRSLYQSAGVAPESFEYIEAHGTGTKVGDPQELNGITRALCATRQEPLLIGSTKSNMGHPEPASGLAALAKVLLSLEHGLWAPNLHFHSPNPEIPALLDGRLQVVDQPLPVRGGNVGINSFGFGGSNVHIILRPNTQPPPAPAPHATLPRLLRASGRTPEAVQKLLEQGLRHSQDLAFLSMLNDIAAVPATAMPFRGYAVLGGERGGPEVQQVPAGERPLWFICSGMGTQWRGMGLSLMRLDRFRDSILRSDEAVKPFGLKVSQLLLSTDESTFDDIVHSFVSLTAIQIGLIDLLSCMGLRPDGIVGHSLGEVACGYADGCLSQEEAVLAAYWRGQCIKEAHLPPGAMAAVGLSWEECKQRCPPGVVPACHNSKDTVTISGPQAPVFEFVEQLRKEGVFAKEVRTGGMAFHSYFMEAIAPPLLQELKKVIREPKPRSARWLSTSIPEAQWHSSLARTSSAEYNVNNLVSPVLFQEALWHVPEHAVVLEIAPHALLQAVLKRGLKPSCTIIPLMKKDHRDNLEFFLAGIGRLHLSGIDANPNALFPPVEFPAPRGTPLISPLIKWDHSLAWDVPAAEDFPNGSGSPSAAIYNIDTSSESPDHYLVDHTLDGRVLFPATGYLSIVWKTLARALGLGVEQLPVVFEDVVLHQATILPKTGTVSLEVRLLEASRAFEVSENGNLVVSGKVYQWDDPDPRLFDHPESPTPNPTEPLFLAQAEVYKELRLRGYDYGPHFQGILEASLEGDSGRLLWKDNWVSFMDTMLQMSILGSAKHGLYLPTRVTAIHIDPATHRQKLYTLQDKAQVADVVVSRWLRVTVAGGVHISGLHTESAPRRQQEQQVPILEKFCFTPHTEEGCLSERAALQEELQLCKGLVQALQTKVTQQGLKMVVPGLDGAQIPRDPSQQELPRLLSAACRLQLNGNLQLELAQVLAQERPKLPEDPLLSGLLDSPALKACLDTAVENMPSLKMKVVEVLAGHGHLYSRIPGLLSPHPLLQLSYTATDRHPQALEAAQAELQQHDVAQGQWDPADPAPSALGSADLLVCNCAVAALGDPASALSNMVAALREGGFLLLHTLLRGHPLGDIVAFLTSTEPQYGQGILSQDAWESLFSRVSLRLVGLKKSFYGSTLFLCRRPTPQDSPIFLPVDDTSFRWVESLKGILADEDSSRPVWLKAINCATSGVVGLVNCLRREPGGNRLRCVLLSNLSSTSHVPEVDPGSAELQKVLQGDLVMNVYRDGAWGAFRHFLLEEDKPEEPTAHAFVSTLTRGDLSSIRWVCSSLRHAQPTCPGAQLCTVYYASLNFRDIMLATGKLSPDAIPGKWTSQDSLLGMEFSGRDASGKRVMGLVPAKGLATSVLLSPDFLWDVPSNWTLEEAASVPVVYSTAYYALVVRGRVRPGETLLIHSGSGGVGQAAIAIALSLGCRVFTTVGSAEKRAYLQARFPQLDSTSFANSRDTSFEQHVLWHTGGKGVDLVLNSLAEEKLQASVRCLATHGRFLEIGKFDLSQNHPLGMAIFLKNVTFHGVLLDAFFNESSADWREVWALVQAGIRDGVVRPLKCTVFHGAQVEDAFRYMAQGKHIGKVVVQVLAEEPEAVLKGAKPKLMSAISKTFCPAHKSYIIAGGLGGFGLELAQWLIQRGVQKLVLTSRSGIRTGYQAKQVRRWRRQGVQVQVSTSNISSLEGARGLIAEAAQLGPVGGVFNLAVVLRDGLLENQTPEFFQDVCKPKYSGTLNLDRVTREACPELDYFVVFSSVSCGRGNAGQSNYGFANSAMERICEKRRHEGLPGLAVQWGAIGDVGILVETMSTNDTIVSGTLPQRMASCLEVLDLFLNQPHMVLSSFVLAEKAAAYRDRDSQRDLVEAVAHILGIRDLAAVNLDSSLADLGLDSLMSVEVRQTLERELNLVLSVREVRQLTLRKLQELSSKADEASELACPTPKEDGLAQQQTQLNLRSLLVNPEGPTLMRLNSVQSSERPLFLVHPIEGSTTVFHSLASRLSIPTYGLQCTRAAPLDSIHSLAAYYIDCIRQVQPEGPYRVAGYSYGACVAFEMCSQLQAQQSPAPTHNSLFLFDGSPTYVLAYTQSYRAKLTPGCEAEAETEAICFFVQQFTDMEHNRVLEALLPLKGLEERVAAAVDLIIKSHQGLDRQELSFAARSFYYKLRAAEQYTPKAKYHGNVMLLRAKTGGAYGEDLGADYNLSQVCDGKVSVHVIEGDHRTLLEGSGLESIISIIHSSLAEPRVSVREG
Method: Purification of FAS from ZR-75-1 Human Breast Cancer Cells.
Human FAS was purified from cultured ZR-75-1 human breast cancer cells obtained from the American Type Culture Collection. The procedure, adapted from Linn et al., 1981, and Kuhajda et al., 1994, utilizes hypotonic lysis, successive polyethyleneglycol (PEG) precipitations, and anion exchange chromatography. ZR-75-1 cells are cultured at 37° C. with 5% CO2 in RPMI culture medium with 10% fetal bovine serum, penicillin and streptomycin.
Ten T150 flasks of confluent cells are lysed with 1.5 ml lysis buffer (20 mM Tris-HCl, pH 7.5, 1 mM EDTA, 0.1 mM phenylmethanesulfonyl fluoride (PMSF), 0.1% Igepal CA-630) and dounce homogenized on ice for 20 strokes. The lysate is centrifuged in JA-20 rotor (Beckman) at 20,000 rpm for 30 minutes at 4° C. and the supernatant is brought to 42 ml with lysis buffer. A solution of 50% PEG 8000 in lysis buffer is added slowly to the supernatant to a final concentration of 7.5%. After rocking for 60 minutes at 4° C., the solution is centrifuged in JA-20 rotor (Beckman) at 15,000 rpm for 30 minutes at 4° C. Solid PEG 8000 is then added to the supernatant to a final concentration of 15%. After the rocking and centrifugation is repeated as above, the pellet is resuspended overnight at 4° C. in 10 ml of Buffer A (20 mM K2HPO4, pH 7.4). After […] filtration, the protein solution is applied to a Mono Q 5/5 anion exchange column (Pharmacia). The column is washed for 15 minutes with buffer A at 1 ml/minute, and bound material is eluted with a linear 60-ml gradient over 60 minutes to 1 M KCl. FAS (MW˜270 kD) typically elutes at 0.25 M KCl in three 0.5 ml fractions identified using 4-15% SDS-PAGE with Coomassie G250 stain (Bio-Rad). FAS protein concentration is determined using the Coomassie Plus Protein Assay Reagent (Pierce) according to manufacturer's specifications using BSA as a standard. This procedure results in substantially pure preparations of FAS (>95%) as judged by Coomassie-stained gels.
Measurement of FAS Enzymatic Activity and Determination of the IC50 of the Compounds
FAS activity is measured by monitoring the malonyl-CoA dependent oxidation of NADPH spectrophotometrically at OD340 in 96-well plates (Dils et al and Arslanian et al, 1975). Each well contains 2 μg purified FAS, 100 mM K2HPO4, pH 6.5, 1 mM dithiothreitol (Sigma), and 187.5 μM β-NADPH (Sigma). Stock solutions of inhibitors are prepared in DMSO at 2, 1, and 0.5 mg/ml resulting in final concentrations of 20, 10, and 5 μg/ml when 1 μl of stock is added per well. For each experiment, cerulenin (Sigma) is run as a positive control along with DMSO controls, inhibitors, and blanks (no FAS enzyme) all in duplicate.
The assay is performed on a Molecular Devices SpectraMax Plus Spectrophotometer. The plate containing FAS, buffers, inhibitors, and controls are placed in the spectrophotometer heated to 37° C. Using the kinetic protocol, the wells are blanked on duplicate wells containing 100 μl of 100 mM K2HPO4, pH 6.5 and the plate is read at OD340 at 10 sec intervals for 5 minutes to measure any malonyl-CoA independent oxidation of NADPH. The plate is removed from the spectrophotometer and malonyl-CoA (67.4 μM, final concentration per well) and […] (61.8 μM, final concentration per well) are added to each well except to the blanks. The plate is read again as above with the kinetic protocol to measure the malonyl-CoA dependent NADPH oxidation. The difference between the Δ OD340 for the malonyl-CoA dependent and non-malonyl-CoA dependent NADPH oxidation is the specific FAS activity. Because of the purity of the FAS preparation, non-malonyl-CoA dependent NADPH oxidation is negligible.
The IC50 for the compounds against FAS is determined by plotting the Δ OD340 for each inhibitor concentration tested, performing linear regression and computing the best-fit line, r^2 values, and 95% confidence intervals. The concentration of compound yielding 50% inhibition of FAS is the IC50. […]

[1] = tested on: MCF-7 human breast cancer cells; experiment: XTT cytotoxicity assay (M); type: cell-based; details: MCF7
Method: (§1) The XTT assay is a non-radioactive alternative for the [^51Cr] release cytotoxicity assay. XTT is a tetrazolium salt that is reduced to a formazan dye only by metabolically active, viable cells. The reduction of XTT is measured spectrophotometrically as OD490-OD650.
To measure the cytotoxicity of specific compounds against cancer cells, 9×10^3 MCF-7 human breast cancer cells, obtained from the American Type Culture Collection are plated per well in 96 well plates in DMEM medium with 10% fetal bovine serum, insulin, penicillin, and streptomycin. Following overnight culture at 37° C. and 5% CO2, the compounds to be tested, dissolved in DMSO, are added to the wells in 1 μl volume at the following concentrations: 80, 40, 20, 10, 5, 2.5, 1.25, and 0.625 μg/ml in triplicate. Additional concentrations are tested if required. 1 μl of DMSO is added to triplicate wells are the vehicle control. C75 is run at 40, 20, […], and 5 μg/ml in triplicate as positive controls.
(§2) After 72 hours of incubation, cells are incubated for 4 hours with the XTT reagent as per manufacturer's instructions (Cell Proliferation Kit II (XTT) Roche). Plates are read at OD490 and OD650 on a Molecular Devices SpectraMax Plus Spectrophotometer. Three wells containing the XTT reagent without cells serve as the plate blank. XTT data are reported as OD490-OD650. Averages and standard error of the mean are computed using SOFTmax Pro software ([…]).
(§3) The IC50 for the compounds is defined as the concentration of drug leading to a 50% reduction in OD490-OD650 compared to controls. The OD490-OD650 are computed by the SOFTmax PRO software (Molecular Devices) for each compound concentration. IC50 is calculated by linear regression, plotting the FAS activity as percent of control versus drug concentrations. Linear regression, best-fit line, r^2, and 95% confidence intervals are determined using Prism Version 3.0 (Graph Pad Software).

(O) = experiment: XTT cytotoxicity assay (O); type: cell-based; details: read-out: XTT (IC50) (O)
Method: as §1, §2, §3

fatty acid oxidation = experiment: β-Oxidation assay, isolation of acid soluble products; type: cell-based; set-up: Beta Oxidation: unit not given here; details: for FAO MAx: maximal fatty acid oxidation, at the concentration given under E32
Method: β-Oxidation Assay—Isolation of Acid Soluble Products A 24 well plate with 1 ml per well was prepared with 2.5×10^5 cells/well. The cells were incubated O/N. The next day, a solubilized palmitate solution was prepared. 50 μls of (1-^14C) Palmitic acid was added to a 2 ml centrifuge tube and dried under nitrogen gas. 2 mls of α-CD (α-Cyclodextran)-10 mg/ml in 10 mM Tris were added. This solution was incubated in a 37° C. water bath for 30 minutes. A hot mix was prepared by adding 25 μls of this solution to 2.5 μls of 200 μM Carnitine and 222.5 μls of serum free medium that is used for cells. The cells were then treated with the test compound in triplicate, and incubated at 37° C. for 60 minutes. The medium was removed and 250 μls of the hot mix were added. The test compound was added again, and further incubated at 37° C. for 60 minutes. The reaction was stopped with 50 μls of 2.6 N HClO4. The contents of the plate were transferred to a 1.5 ml centrifuge tube, and 50 μls of 4N KOH were then added, and the tube incubated in a 60° C. water bath for 30 min. Sodium acetate (1M, 75 μls) and sulfuric acid (3N, 50 μls) were added to the solution and vortexed. The tube was spun for 7 minutes at 1000 rpm at room temperature. A portion (225 μls) was removed, and the following were added (vortex after each addition, twice at the end): 938 μls of 1:1 Chloroform:Methanol; 468 μls of Chloroform; 281 μls distilled Water. The tubes were spun at 1000 rpm for 5 minutes. The upper phase was removed into a large glass scintillation vial and 5 mls of Budget solvent (scintillation liquid) was added. The tubes were well vortexed. Finally, C14 was counted for one minute.

[2] = target: rat liver acyl-CoA synthetase; details: read-out: 50% inhibition of rat liver acyl-CoA synthetase; cited from earlier work
Raji cells = details: cited from earlier work
viral HIV protease = viral HIV protease (Human immunodeficiency virus type 1 group M subtype B, UniProt P04585); details: cited from earlier work
[3] = tested on: Mycobacterium tuberculosis; details: in vitro; cited from earlier work

| Structure (SMILES) | FAS (IC50) (SB) (purified human FAS) | IC50 [1] | IC50 ((O)) | FAO MAx, concentration at maximum (fatty acid oxidation) | FAO SC 150 (fatty acid oxidation) | Beta Oxidation (fatty acid oxidation; 0.097 ug/ml) | Beta Oxidation (fatty acid oxidation; 0.39 ug/ml) | Beta Oxidation (fatty acid oxidation; 1.56 ug/ml) | Beta Oxidation (fatty acid oxidation; 6.25 ug/ml) | Beta Oxidation (fatty acid oxidation; 25 ug/ml) | Beta Oxidation (fatty acid oxidation; 100 ug/ml) | FAO MAx (fatty acid oxidation) | IC50 [2] | growth inhibition in Raji cells at (Raji cells) | inhibition of viral HIV protease at (viral HIV protease) | activity against Mycobacterium tuberculosis [3] |
| --- | --- | --- | --- | --- | --- | --- | --- | --- | --- | --- | --- | --- | --- | --- | --- | --- |
| CCCCCCCCC1(C)SC(=O)C(C)(C)C1=O (stereo not shown) [Compound 6, 3,3,5-Trimethyl-5-octyl-thiophene-2,4-dione] | Neg (SB) | 23 µg/mL (≈ 85 µM) | > 80 µg/mL | 6.25 µg/mL | Neg | 100 and 86 | 110 and 93 | 110 and 102 | 121 and 141 and 130 | 57 and 52 and 53 | 19 and 29 | 141% at | – | – | – | – |
| CCCCCCC1(C)SC(=O)C(C)(C)C1=O (stereo not shown) [Compound 9, 3,3,5-Trimethyl-5-hexyl-thiophene-2,4-dione] | Neg (SB) | 5.3 µg/mL (≈ 21.9 µM) | 14 µg/mL (≈ 57.8 µM) | 6.25 µg/mL | Neg | 96 | 99 | 97 | 115 | 58 | 27 | 115% | – | – | – | – |
| CCCC=CCC=CC=CC=NN=NO [Triacsin C, 1-hydroxy-3-(E,E,E-2′,4′,7′-undecatrienylidine) triazene] | – | – | – | – | – | – | – | – | – | – | – | – | 8.7 µM | 1.0 µM | – | – |
| C/C=C/C/C=C/CCC(=O)[C@H]1O[C@H]1C(N)=O [cerulenin, (2S,3R)-2,3-epoxy-4-oxo-7,10 dodecadienoyl amide] | – | – | – | – | – | – | – | – | – | – | – | – | – | – | 5 mg/mL | no activity was found |
